Data reported in patent publication US20240425479A1, “HALO-SUBSTITUTED AMINO AZA-HETEROARYL COMPOUNDS AS INHIBITORS OF THE HAEMATOPOIETIC PROGENITOR KINASE 1 (HPK1)” (priority 2021, published 2024).

Experiments:
[1] = biological target: T1, Recombinant (1-346) HPK1 (h) (Homo sapiens, UniProt Q92918); experiment: HPK1 human STE kinase enzymatic radiometric assay; format: biochemical; conditions: read-out: HPK1 IC50 nM Range
T1 construct: Recombinant (1-346) HPK1 (h) is incubated with 8 mM MOPS pH 7.0
T1 sequence (Q92918 1-346): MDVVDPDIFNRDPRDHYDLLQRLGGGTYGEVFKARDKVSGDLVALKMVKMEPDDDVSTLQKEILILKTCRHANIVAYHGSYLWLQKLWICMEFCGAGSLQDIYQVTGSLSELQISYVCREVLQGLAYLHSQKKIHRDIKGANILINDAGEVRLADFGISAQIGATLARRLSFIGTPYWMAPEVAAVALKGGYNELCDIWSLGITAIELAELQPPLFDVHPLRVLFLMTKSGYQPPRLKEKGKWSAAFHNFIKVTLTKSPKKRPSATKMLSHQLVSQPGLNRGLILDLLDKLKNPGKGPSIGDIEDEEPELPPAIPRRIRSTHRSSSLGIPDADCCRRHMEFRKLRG
Method in brief: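 Recombinant HPK1 (1-346) incubated 40 min at RT with 0.33 mg/mL myelin basic protein and [gamma-33P]-ATP in 8 mM MOPS pH 7.0, 0.2 mM EDTA, 10 mM Mg acetate; reaction started with Mg/ATP. Stopped with 0.5% phosphoric acid, spotted on P30 filtermat, washed, scintillation counted. Compounds tested as 9-point 3-fold dilutions.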

Lck (h) = Lck (h) (Homo sapiens, UniProt P06239); experiment: Lck human STE kinase enzymatic radiometric assay; format: biochemical; conditions: read-out: Lck IC50 nM Range
Chain of Lck (h) (P06239 whole entry): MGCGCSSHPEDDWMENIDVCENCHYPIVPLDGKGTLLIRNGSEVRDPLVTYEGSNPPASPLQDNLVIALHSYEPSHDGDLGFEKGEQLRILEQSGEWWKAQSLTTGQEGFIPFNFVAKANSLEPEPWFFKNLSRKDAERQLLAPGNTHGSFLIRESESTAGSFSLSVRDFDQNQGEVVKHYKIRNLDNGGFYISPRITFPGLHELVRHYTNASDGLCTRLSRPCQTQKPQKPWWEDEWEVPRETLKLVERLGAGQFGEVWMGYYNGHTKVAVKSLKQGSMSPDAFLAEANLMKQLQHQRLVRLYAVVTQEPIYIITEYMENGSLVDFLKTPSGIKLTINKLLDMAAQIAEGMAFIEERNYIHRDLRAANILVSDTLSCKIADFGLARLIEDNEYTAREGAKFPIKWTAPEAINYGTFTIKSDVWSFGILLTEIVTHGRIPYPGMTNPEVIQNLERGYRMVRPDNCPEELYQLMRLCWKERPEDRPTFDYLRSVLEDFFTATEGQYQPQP

Structure (SMILES)	IC50 [1]	IC50 (Lck (h))
CN(C)Cc1cc(-c2nc(-c3ccc4c(=O)[nH]cc(Cl)c4c3)c(N)nc2F)ccc1C1CCOCC1 [Example I-154, 6-(3-amino-6-(3-((dimethylamino)methyl)-4-(tetrahydro-2H-pyran-4-yl)phenyl)-5-fluoropyrazin-2-yl)-4-chloroisoquinolin-1(2H)-one]	0.1 to 10 nM	> 1000 nM
CCN(C)Cc1cc(-c2nc(-c3cc4c(cc3F)C(=O)NCC4)c(N)nc2F)ccc1C1CCOCC1 [Example I-164, 6-(3-amino-6-(3-((ethyl(methyl)amino)methyl)-4-(tetrahydro-2H-pyran-4-yl)phenyl)-5-fluoropyrazin-2-yl)-7-fluoro-3,4-dihydroisoquinolin-1(2H)-one]	0.1 to 10 nM	> 1000 nM
CCN(C)Cc1cc(-c2nc(-c3cc(F)c4c(c3)CCNC4=O)c(N)nc2F)ccc1C1CCOCC1 [Example I-165, 6-(3-amino-6-(3-((ethyl(methyl)amino)methyl)-4-(tetrahydro-2H-pyran-4-yl)phenyl)-5-fluoropyrazin-2-yl)-8-fluoro-3,4-dihydroisoquinolin-1(2H)-one]	0.1 to 10 nM	> 1000 nM
Nc1nc(F)c(-c2ccc(C3CCOCC3)c(CN3CCC3)c2)nc1-c1cc2c(cc1F)C(=O)NCC2 [Example I-170, 6-(3-amino-6-(3-(azetidin-1-ylmethyl)-4-(tetrahydro-2H-pyran-4-yl)phenyl)-5-fluoropyrazin-2-yl)-7-fluoro-3,4-dihydroisoquinolin-1(2H)-one]	0.1 to 10 nM	> 1000 nM
Nc1nc(F)c(-c2ccc(C3CCOCC3)c(CN3CCC3)c2)nc1-c1cc(F)c2c(c1)CCNC2=O [Example I-171, 6-(3-amino-6-(3-(azetidin-1-ylmethyl)-4-(tetrahydro-2H-pyran-4-yl)phenyl)-5-fluoropyrazin-2-yl)-8-fluoro-3,4-dihydroisoquinolin-1(2H)-one]	0.1 to 10 nM	101 to 1000 nM
C[C@@H]1CN(c2ccc(-c3nc(-c4ccc5c(c4)CCNC5=O)c(N)nc3F)cc2CN(C)C)CCO1 [Example I-172, (R)-6-(3-amino-6-(3-((dimethylamino)methyl)-4-(2-methylmorpholino)phenyl)-5-fluoropyrazin-2-yl)-3,4-dihydroisoquinolin-1(2H)-one]	0.1 to 10 nM	> 1000 nM
C[C@@H]1CN(c2ccc(-c3nc(-c4cc5c(cc4F)C(=O)NCC5)c(N)nc3F)cc2CN(C)C)CCO1 [Example I-173, (R)-6-(3-amino-6-(3-((dimethylamino)methyl)-4-(2-methylmorpholino)phenyl)-5-fluoropyrazin-2-yl)-7-fluoro-3,4-dihydroisoquinolin-1(2H)-one]	0.1 to 10 nM	101 to 1000 nM
CN(C)Cc1cc(-c2nc(-c3ccc4c(c3)C(F)(F)CNC4=O)c(N)nc2F)ccc1C1CCOCC1 [Example I-223, 6-(3-amino-6-(3-((dimethylamino)methyl)-4-(tetrahydro-2H-pyran-4-yl)phenyl)-5-fluoropyrazin-2-yl)-4,4-difluoro-3,4-dihydroisoquinolin-1(2H)-one]	0.1 to 10 nM	> 1000 nM
CCN(C)Cc1cc(-c2nc(-c3ccc4c(=O)[nH]cc(F)c4c3)c(N)nc2F)ccc1C1CCOCC1 [Example I-238, 6-(3-amino-6-(3-((ethyl(methyl)amino)methyl)-4-(tetrahydro-2H-pyran-4-yl)phenyl)-5-fluoropyrazin-2-yl)-4-fluoroisoquinolin-1(2H)-one]	0.1 to 10 nM	> 1000 nM
C[C@@H]1CN(c2ccc(-c3nc(-c4ccc5c(c4)C(F)(F)CNC5=O)c(N)nc3F)cc2CN(C)C)C[C@H](C)O1 [Example I-257, 6-(3-amino-6-(3-((dimethylamino)methyl)-4-((2R,6S)-2,6-dimethylmorpholino)phenyl)-5-fluoropyrazin-2-yl)-4,4-difluoro-3,4-dihydroisoquinolin-1(2H)-one]	0.1 to 10 nM	> 1000 nM
COc1ccc(-c2nc(-c3ccc4c(=O)[nH]cc(F)c4c3)c(N)nc2F)cc1CN(C)C [Example I-267, 6-(3-amino-6-(3-((dimethylamino)methyl)-4-methoxyphenyl)-5-fluoropyrazin-2-yl)-4-fluoroisoquinolin-1(2H)-one]	0.1 to 10 nM	> 1000 nM
CC(C)S(=O)(=O)c1ccc(-c2nc(-c3ccc4c(=O)[nH]cc(F)c4c3)c(N)nc2F)cc1CN(C)C [Example I-293, 6-(3-amino-6-(3-((dimethylamino)methyl)-4-(isopropylsulfonyl)phenyl)-5-fluoropyrazin-2-yl)-4-fluoroisoquinolin-1(2H)-one]	11 to 100 nM	> 1000 nM
